The source of these data is ChEMBL document CHEMBL2346547, “Bifunctional inhibition of human immunodeficiency virus type 1 reverse transcriptase: mechanism and proof-of-concept as a novel therapeutic design strategy” (J Med Chem, 2013).

As a reminder, the IC50 is the concentration needed to halve the response being measured.

In test [1] the target is T1, Human immunodeficiency virus type 1 reverse transcriptase (Human immunodeficiency virus 1, UniProt Q72547). Description: Competitive inhibition of C-Terminal histidine-tagged wild type heterodimeric HIV-1 reverse transcriptase p66/p51 assessed as inhibition of dGTP incorporation after 15 mins by PAGE.
Test [2] concerns the target T1, Human immunodeficiency virus type 1 reverse transcriptase. Description: Competitive inhibition of C-Terminal histidine-tagged wild type heterodimeric HIV-1 reverse transcriptase p66/p51 assessed as inhibition of dTTP incorporation after 15 mins by PAGE.

Molecules are shown by their SMILES.

With `C#CCOCCOCCOCCOCCOCC#Cc1cc(C)c(Oc2ccnc(Nc3ccc(C#N)cc3)n2)c(C)c1`, the IC50 amounted to 64 nM in test [1] and 122 nM in test [2]. Regarding `Cc1cc(C#CCOCCOCCOCCOCCOCC#Cc2cn([C@H]3C=C[C@@H](COP(=O)(O)OP(=O)(O)OP(=O)(O)O)O3)c(=O)[nH]c2=O)cc(C)c1Oc1ccnc(Nc2ccc(C#N)cc2)n1`, the concentration for half-maximal inhibition (IC50) in test [1] came out at 42 nM; in test [2], 3 nM. The corresponding values for `Cc1cc(C#N)cc(C)c1Oc1ccnc(Nc2ccc(C#N)cc2)n1` are 9 nM and 13 nM. Consider `Cc1cn([C@H]2C=C[C@@H](COP(=O)(O)OP(=O)(O)OP(=O)(O)O)O2)c(=O)[nH]c1=O` [STAVUDINE TRIPHOSPHATE], for which the IC50 in test [2] is 13000 nM.
